In ChEMBL document CHEMBL4507299, “Data for DCP probe PF-04554878” (2021):

Key:
[1] = target: TGF-beta receptor type-2 (Homo sapiens) (UniProt P37173)
[2] = target: Ribosomal protein S6 kinase alpha-2 (Homo sapiens) (UniProt Q15349)
[3] = target: Protein kinase C delta type (Homo sapiens) (UniProt Q05655)
[4] = target: Phosphatidylinositol 4,5-bisphosphate 3-kinase catalytic subunit delta isoform (Homo sapiens) (UniProt O00329)
[5] = target: Casein kinase I isoform gamma-2 (Homo sapiens) (UniProt P78368)
[6] = target: Dual specificity testis-specific protein kinase 1 (Homo sapiens) (UniProt Q15569)
[7] = target: Cyclin-dependent kinase 17 (Homo sapiens) (UniProt Q00537)
Chain of Cyclin-dependent kinase 17 (Homo sapiens) (Q00537 whole entry, looked up): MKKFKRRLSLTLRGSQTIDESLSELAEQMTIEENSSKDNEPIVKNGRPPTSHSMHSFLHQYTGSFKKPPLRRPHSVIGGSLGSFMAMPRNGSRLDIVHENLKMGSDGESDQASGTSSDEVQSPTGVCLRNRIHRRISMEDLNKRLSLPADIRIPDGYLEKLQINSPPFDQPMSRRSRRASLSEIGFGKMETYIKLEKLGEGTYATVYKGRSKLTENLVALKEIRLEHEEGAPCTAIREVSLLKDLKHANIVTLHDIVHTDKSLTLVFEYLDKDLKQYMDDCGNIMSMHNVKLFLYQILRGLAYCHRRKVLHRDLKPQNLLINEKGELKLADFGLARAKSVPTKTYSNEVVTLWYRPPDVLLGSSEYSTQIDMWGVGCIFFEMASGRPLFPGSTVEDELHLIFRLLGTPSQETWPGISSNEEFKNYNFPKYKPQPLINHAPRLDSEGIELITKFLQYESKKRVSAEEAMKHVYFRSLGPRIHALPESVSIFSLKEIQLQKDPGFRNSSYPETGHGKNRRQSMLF

[8] = target: Delta-type opioid receptor (Homo sapiens) (UniProt P41143); conditions: Compound concentration 10.0 uM
Chain of Delta-type opioid receptor (Homo sapiens) (P41143 whole entry): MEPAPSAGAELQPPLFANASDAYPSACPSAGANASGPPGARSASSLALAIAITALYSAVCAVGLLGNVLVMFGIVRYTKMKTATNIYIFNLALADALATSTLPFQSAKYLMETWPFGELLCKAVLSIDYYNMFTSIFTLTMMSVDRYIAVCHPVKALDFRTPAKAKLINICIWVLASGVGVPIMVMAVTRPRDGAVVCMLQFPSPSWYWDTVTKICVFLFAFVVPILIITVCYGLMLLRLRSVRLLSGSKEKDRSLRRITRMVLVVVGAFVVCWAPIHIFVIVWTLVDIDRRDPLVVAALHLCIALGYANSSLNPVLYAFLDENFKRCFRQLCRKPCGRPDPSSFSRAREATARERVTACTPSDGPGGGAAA

[9] = target: Proto-oncogene tyrosine-protein kinase Src (Homo sapiens, UniProt P12931)
[10] = target: Histamine H3 receptor (Homo sapiens) (UniProt Q9Y5N1); conditions: Compound concentration 10.0 uM
[11] = target: Phosphorylase b kinase regulatory subunit alpha, liver isoform (Homo sapiens) (UniProt P46019)
[12] = target: Serine/threonine-protein kinase PAK 3 (Homo sapiens) (UniProt O75914)
[13] = target: AP2-associated protein kinase 1 (Homo sapiens) (UniProt Q2M2I8)
[14] = target: Tyrosine-protein kinase receptor TYRO3 (Homo sapiens) (UniProt Q06418)
[15] = target: cAMP-dependent protein kinase catalytic subunit beta (Homo sapiens) (UniProt P22694)
[16] = target: Tyrosine-protein kinase Srms (Homo sapiens) (UniProt Q9H3Y6)
[17] = target: Homeodomain-interacting protein kinase 1 (Homo sapiens) (UniProt Q86Z02)
[18] = target: Ribosomal protein S6 kinase alpha-1 (Homo sapiens) (UniProt Q15418)
[19] = target: Phosphatidylinositol 5-phosphate 4-kinase type-2 gamma (Homo sapiens) (UniProt Q8TBX8)
Chain of Phosphatidylinositol 5-phosphate 4-kinase type-2 gamma (Homo sapiens) (Q8TBX8 whole entry): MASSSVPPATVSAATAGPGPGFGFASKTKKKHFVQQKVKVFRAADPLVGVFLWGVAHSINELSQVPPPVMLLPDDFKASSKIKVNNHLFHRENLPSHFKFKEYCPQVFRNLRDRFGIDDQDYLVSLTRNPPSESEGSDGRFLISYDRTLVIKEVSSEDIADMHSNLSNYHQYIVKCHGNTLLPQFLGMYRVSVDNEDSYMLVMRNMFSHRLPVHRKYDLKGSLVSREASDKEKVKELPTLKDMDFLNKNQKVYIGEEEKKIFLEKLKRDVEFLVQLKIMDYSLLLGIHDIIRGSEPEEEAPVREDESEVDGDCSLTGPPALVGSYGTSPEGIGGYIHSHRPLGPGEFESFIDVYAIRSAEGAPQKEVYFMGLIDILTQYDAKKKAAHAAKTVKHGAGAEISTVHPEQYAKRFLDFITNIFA

[20] = target: Angiopoietin-1 receptor (Homo sapiens) (UniProt Q02763)
[21] = system: Receptor-type tyrosine-protein kinase FLT3 (Homo sapiens), P36888 [N841I]
[22] = target: Serine/threonine-protein kinase WNK4 (Homo sapiens) (UniProt Q96J92)
[23] = target: Serine/threonine-protein kinase 17B (Homo sapiens) (UniProt O94768)
[24] = target: Mitogen-activated protein kinase kinase kinase kinase 3 (Homo sapiens) (UniProt Q8IVH8)
[25] = target: Vascular endothelial growth factor receptor 2 (Homo sapiens) (UniProt P35968)
Chain of Vascular endothelial growth factor receptor 2 (Homo sapiens) (P35968 whole entry): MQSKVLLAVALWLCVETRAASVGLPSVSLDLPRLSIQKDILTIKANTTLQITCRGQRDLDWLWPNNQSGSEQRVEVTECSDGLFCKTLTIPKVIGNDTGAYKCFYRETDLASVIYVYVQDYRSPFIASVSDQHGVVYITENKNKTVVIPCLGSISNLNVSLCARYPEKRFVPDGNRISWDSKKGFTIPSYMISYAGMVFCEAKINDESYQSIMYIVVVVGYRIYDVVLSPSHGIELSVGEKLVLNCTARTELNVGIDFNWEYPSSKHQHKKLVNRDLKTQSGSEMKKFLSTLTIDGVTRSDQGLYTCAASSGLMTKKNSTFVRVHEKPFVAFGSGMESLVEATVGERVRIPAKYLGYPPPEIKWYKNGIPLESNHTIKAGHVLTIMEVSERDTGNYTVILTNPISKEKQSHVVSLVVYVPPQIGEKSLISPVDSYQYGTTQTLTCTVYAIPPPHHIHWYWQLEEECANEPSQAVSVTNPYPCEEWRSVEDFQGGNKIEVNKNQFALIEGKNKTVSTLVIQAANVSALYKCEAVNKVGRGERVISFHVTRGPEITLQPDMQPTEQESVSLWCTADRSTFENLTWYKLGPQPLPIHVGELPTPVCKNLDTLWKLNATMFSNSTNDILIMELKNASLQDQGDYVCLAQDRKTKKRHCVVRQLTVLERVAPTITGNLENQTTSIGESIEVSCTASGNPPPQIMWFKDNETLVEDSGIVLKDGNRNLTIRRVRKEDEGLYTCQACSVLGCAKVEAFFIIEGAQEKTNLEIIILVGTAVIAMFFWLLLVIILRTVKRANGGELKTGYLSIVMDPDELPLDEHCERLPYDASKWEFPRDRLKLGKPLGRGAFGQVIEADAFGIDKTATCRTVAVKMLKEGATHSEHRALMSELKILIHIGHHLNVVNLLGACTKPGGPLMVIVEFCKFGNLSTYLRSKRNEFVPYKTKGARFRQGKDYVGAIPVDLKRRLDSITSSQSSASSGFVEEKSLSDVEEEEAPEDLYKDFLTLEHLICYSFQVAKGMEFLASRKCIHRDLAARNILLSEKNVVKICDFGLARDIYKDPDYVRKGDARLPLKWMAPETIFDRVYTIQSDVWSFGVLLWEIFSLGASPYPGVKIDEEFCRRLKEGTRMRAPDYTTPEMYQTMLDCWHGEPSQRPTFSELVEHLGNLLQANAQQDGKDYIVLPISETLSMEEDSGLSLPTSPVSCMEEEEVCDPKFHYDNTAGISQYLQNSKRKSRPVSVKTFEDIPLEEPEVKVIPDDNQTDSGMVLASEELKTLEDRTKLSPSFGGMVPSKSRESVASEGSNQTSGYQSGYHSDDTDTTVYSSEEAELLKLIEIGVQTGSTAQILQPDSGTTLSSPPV

[26] = target: Mitogen-activated protein kinase kinase kinase 4 (Homo sapiens) (UniProt Q9Y6R4)
[27] = target: Calcium/calmodulin-dependent protein kinase kinase 2 (Homo sapiens) (UniProt Q96RR4)
[28] = target: Myosin-IIIa (Homo sapiens) (UniProt Q8NEV4)
[29] = target: T1, Inhibitor of nuclear factor kappa-B kinase subunit epsilon (Homo sapiens) (UniProt Q14164)
T1 sequence (whole entry): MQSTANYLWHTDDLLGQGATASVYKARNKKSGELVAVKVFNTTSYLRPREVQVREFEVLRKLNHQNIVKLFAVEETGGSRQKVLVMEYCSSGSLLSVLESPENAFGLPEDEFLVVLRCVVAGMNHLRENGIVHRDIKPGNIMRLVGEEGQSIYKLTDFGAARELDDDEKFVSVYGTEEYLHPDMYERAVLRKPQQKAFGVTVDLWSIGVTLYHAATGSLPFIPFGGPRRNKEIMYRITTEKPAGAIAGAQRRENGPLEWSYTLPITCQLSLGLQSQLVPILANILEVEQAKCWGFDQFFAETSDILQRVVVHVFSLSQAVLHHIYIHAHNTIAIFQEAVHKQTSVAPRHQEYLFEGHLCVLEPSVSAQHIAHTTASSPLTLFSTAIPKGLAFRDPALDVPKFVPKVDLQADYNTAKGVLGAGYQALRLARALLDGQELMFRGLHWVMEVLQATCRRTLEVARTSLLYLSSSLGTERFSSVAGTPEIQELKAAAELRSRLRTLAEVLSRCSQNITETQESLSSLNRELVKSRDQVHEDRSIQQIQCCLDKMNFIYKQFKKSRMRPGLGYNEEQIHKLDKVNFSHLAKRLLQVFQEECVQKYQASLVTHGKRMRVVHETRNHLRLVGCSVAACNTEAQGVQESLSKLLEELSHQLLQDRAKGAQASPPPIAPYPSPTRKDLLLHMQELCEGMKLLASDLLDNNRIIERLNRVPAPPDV

[30] = target: Tyrosine-protein kinase JAK2 (Homo sapiens) (UniProt O60674)
[31] = target: Tyrosine-protein kinase HCK (Homo sapiens) (UniProt P08631)
[32] = target: Muscarinic acetylcholine receptor M5 (Homo sapiens) (UniProt P08912); conditions: Compound concentration 10.0 uM
Chain of Muscarinic acetylcholine receptor M5 (Homo sapiens) (P08912 whole entry): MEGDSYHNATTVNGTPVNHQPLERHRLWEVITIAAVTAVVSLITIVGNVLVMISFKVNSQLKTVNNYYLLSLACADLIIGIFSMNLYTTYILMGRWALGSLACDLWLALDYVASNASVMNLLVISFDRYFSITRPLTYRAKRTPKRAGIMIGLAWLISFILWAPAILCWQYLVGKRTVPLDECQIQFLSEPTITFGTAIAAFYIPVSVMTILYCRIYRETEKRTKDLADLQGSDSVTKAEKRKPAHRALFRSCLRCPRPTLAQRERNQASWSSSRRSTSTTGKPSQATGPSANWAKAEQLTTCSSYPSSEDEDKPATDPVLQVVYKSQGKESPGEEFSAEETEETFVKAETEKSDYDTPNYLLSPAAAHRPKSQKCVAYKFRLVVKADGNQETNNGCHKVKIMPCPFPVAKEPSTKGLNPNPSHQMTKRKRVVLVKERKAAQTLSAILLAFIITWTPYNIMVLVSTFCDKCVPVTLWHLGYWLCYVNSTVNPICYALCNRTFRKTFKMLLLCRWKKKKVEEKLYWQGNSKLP

[33] = target: Ribosomal protein S6 kinase alpha-5 (Homo sapiens) (UniProt O75582)
[34] = target: 5-hydroxytryptamine receptor 6 (Homo sapiens) (UniProt P50406); conditions: Compound concentration 10.0 uM
[35] = target: ALK tyrosine kinase receptor (Homo sapiens) (UniProt Q9UM73)
Chain of ALK tyrosine kinase receptor (Homo sapiens) (Q9UM73 19-1620 limits assumed): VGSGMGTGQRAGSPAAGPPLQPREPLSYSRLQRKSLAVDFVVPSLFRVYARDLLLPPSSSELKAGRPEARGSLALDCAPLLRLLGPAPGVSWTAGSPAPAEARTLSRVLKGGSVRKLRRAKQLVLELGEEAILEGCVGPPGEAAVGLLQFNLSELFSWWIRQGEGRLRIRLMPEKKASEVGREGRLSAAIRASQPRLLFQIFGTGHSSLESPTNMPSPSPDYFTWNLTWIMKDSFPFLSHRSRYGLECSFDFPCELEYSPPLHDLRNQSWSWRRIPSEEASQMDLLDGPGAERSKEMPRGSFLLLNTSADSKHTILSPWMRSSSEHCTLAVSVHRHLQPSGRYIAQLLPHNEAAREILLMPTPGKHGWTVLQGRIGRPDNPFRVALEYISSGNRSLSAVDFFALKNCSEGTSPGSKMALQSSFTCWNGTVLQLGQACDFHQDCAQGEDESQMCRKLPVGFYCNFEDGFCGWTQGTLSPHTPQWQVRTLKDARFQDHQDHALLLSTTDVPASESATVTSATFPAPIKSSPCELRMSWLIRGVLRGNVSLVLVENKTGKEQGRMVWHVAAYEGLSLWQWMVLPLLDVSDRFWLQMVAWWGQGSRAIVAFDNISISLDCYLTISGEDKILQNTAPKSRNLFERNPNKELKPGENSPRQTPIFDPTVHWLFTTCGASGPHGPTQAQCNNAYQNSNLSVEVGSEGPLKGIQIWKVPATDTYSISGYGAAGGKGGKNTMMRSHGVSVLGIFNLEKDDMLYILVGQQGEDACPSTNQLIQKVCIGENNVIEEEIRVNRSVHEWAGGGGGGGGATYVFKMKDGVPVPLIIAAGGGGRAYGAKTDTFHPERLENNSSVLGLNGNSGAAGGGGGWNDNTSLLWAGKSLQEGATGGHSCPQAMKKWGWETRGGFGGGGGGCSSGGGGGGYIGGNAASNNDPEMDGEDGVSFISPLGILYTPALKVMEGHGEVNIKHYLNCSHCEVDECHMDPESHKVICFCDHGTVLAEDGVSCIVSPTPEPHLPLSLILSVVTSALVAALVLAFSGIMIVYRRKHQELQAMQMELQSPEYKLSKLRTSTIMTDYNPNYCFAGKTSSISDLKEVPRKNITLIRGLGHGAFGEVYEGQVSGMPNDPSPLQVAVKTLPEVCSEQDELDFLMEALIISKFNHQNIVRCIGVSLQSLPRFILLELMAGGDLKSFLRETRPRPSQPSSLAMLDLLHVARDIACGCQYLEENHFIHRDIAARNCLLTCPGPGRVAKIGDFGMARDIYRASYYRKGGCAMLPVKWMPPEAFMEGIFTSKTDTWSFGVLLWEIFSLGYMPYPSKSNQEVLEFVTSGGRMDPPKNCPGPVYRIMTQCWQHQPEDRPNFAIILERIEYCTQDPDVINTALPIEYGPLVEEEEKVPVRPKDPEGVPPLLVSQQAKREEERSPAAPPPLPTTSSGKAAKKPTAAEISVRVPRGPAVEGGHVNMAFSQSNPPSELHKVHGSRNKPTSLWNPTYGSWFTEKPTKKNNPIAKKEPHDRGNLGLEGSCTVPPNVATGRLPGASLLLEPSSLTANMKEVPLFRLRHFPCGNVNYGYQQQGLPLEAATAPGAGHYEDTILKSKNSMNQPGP

[36] = target: Serine/threonine-protein kinase DCLK1 (Homo sapiens) (UniProt O15075)
[37] = Compound concentration 100.0 nM
[38] = Compound concentration 1000.0 nM

## CNC(=O)c1ccc(Nc2ncc(C(F)(F)F)c(NCc3nccnc3N(C)S(C)(=O)=O)n2)cc1 [DEFACTINIB]
[1]; [37]
  residual activity: 100%
[2]; [37]
  residual activity: 77%
[3]; [37]
  residual activity: 100%
[4]; [37]
  residual activity: 90%
[5]; [37]
  residual activity: 99%
[6]; [37]
  residual activity: 96%
[7]; [37]
  residual activity: 88%
[8]
  inhibition: -0.28%
[9]; [37]
  residual activity: 79%
[10]
  inhibition: -7.94%
[11]; [37]
  residual activity: 75%
[12]; [37]
  residual activity: 100%
[13]; [37]
  residual activity: 80%
[14]; [37]
  residual activity: 100%
[15]; [37]
  residual activity: 93%
[16]; [37]
  residual activity: 96%
[17]; [37]
  residual activity: 27%
[18]; [37]
  residual activity: 100%
[19]; [37]
  residual activity: 40%
[20]; [37]
  residual activity: 69%
[21]; [37]
  residual activity: 0%
[22]; [37]
  residual activity: 81%
[23]; [37]
  residual activity: 100%
[24]; [37]
  residual activity: 95%
[25]; [37]
  residual activity: 73%
[26]; [37]
  residual activity: 100%
[27]; [37]
  residual activity: 68%
[28]; [37]
  residual activity: 100%
[29]; [37]
  residual activity: 99%
[30]; [37]
  residual activity: 4.8%
[31]; [37]
  residual activity: 100%
[32]
  inhibition: 5.41%
[33]; [37]
  residual activity: 81%
[34]
  inhibition: -8.99%
[35]; [37]
  residual activity: 58%
[36]; [37]
  residual activity: 99%

## CN(c1ccnc(CNc2nc(Nc3ccc4c(c3)CC(=O)N4)ncc2C(F)(F)F)n1)S(C)(=O)=O [PF-00911705]
[1]; [38]
  residual activity: 100%
[2]; [38]
  residual activity: 57%
[3]; [38]
  residual activity: 78%
[4]; [38]
  residual activity: 77%
[5]; [38]
  residual activity: 100%
[6]; [38]
  residual activity: 97%
[7]; [38]
  residual activity: 85%
[8]
  inhibition: -6.88%
[9]; [38]
  residual activity: 60%
[10]
  inhibition: 12.9%
[11]; [38]
  residual activity: 63%
[12]; [38]
  residual activity: 88%
[13]; [38]
  residual activity: 27%
[14]; [38]
  residual activity: 99%
[15]; [38]
  residual activity: 88%
[16]; [38]
  residual activity: 62%
[17]; [38]
  residual activity: 45%
[18]; [38]
  residual activity: 100%
[19]; [38]
  residual activity: 42%
[20]; [38]
  residual activity: 50%
[21]; [38]
  residual activity: 0%
[22]; [38]
  residual activity: 0%
[23]; [38]
  residual activity: 48%
[24]; [38]
  residual activity: 87%
[25]; [38]
  residual activity: 56%
[26]; [38]
  residual activity: 91%
[27]; [38]
  residual activity: 69%
[28]; [38]
  residual activity: 100%
[29]; [38]
  residual activity: 18%
[30]; [38]
  residual activity: 3.8%
[31]; [38]
  residual activity: 100%
[32]
  inhibition: -6.47%
[33]; [38]
  residual activity: 96%
[34]
  inhibition: 11.1%
[35]; [38]
  residual activity: 81%
[36]; [38]
  residual activity: 57%
